# Target: FASN enzyme (Homo sapiens, UniProt P49327)
# Test: Enzymatic Assay for FASN Inhibitors
# Format: biochemical
# Settings: not given
# Summary of the method: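 40 nM FASN preincubated with compound 60 min at 25° C in HEPES pH 7.3 buffer with 0.04% Triton X-100. Then 20 μM acetyl-CoA, 60 μM malonyl-CoA and 100 μM NADPH added for 90 min, quenched with CPM thiol probe; fluorescence 360/530 nm, IC50 by four-parameter fit.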
# Chain of FASN enzyme (P49327 whole entry): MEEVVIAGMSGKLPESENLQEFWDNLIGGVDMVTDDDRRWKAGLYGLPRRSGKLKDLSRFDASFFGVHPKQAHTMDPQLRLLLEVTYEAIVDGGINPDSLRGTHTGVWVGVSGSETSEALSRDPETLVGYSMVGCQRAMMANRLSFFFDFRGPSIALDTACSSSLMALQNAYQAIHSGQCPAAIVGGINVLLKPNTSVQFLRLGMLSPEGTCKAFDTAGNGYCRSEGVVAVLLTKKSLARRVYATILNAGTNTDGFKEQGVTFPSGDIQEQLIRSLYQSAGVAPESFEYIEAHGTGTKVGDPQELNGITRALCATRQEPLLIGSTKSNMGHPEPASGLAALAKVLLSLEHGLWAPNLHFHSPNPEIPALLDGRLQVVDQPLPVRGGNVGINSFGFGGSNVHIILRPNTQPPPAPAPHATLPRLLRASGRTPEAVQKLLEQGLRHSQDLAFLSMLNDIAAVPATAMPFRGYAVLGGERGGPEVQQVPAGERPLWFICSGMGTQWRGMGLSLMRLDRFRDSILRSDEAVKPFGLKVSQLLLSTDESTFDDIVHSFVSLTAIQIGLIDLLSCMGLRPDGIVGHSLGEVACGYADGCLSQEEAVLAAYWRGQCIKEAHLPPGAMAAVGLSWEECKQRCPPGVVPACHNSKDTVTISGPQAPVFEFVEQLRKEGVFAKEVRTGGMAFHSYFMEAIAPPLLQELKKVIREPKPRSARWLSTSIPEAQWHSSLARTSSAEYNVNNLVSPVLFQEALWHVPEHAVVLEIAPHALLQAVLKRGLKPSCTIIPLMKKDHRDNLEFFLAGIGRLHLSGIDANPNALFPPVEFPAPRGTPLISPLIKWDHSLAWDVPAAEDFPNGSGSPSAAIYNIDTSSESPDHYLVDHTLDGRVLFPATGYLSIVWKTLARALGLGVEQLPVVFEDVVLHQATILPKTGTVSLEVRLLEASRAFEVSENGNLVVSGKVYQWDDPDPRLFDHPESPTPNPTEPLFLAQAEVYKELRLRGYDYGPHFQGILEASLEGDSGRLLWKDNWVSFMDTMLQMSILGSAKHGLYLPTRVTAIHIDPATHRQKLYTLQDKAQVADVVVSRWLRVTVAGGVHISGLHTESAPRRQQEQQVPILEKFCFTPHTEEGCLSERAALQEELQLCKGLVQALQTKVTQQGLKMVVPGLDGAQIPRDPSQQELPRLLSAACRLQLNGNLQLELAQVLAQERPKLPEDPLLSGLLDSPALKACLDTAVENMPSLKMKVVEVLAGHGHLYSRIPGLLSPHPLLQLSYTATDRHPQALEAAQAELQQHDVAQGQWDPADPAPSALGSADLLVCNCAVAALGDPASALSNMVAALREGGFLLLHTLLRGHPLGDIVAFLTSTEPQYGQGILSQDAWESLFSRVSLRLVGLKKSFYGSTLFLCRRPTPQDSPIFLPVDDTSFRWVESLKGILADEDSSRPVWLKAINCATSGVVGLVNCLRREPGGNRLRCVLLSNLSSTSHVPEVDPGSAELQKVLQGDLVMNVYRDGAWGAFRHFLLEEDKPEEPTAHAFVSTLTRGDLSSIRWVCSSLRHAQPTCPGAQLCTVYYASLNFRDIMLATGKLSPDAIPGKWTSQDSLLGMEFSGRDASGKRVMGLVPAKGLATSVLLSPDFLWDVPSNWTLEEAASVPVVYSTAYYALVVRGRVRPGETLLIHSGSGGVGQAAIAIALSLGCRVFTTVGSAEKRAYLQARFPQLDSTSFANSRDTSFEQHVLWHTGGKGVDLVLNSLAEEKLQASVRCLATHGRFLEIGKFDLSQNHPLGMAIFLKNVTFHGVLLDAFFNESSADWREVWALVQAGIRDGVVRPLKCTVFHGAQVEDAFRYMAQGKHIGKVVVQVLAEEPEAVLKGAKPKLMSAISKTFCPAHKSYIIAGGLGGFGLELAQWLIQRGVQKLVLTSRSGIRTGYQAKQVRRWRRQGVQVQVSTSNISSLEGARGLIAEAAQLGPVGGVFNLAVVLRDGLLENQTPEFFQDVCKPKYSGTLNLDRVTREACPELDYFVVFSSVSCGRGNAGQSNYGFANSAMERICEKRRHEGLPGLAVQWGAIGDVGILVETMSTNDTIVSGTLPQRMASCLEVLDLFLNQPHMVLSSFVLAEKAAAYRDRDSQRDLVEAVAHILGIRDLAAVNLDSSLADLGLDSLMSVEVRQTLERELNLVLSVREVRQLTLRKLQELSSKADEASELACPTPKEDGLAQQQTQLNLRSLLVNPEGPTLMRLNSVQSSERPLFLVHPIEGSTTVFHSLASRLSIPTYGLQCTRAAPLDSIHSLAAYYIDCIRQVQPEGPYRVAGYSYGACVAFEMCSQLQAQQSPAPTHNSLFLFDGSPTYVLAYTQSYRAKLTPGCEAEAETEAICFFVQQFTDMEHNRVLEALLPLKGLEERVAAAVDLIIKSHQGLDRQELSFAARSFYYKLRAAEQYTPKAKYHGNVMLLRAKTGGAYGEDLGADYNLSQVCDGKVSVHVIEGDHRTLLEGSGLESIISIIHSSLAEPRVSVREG
row,IC50,SMILES
1,< 500 nM,Cc1n[nH]c2cc(-c3ccc(C(=O)N4CCN(C(=O)C5(O)CC5)CC4)cc3)ccc12 [1-{4-[4-(3-methyl-1H-indazol-6-yl)benzoyl]piperazine-1-carbonyl}cyclopropan-1-ol]
2,< 500 nM,Cc1cc2ccccc2n1-c1ccc(C(=O)N2CCN(C(=O)C3(N)CC3)CC2)c(F)c1 [1-{4-[2-fluoro-4-(2-methyl-1H-indol-1-yl)benzoyl]piperazine-1-carbonyl}cyclopropan-1-amine]
3,< 500 nM,O=C(c1ccc(-c2ccc3[nH]c(=O)ccc3c2)cc1)N1CCN(C(=O)C2(O)CC2)CC1
4,< 500 nM,"O=C(c1ccc(-c2cccc(N3CCCS3(=O)=O)c2)cc1)N1CCN(C(=O)C2(O)CC2)CC1 [2-(3-{4-[4-(1-hydroxycyclopropanecarbonyl)piperazine-1-carbonyl]phenyl}phenyl)-1λ^6,2-thiazolidine-1,1-dione]"
5,< 500 nM,"O=C(c1ccc(-c2ccc3ncn(CCO)c3c2)cc1)N1CCN(C(=O)C2(O)CC2)CC1 [1-(4-{4-[1-(2-hydroxyethyl)-1H-1,3-benzodiazol-6-yl]benzoyl}piperazine-1-carbonyl)cyclopropan-1-ol]"
6,< 500 nM,C[C@H]1CN(C(=O)c2ccc(-c3ccc4cnn(C)c4c3)cc2)CCN1C(=O)C1(O)CC1 [1-[(2S)-2-methyl-4-[4-(1-methyl-1H-indazol-6-yl)benzoyl]piperazine-1-carbonyl]cyclopropan-1-ol]
7,< 500 nM,"C[C@H]1CN(C(=O)C2(O)CC2)CCN1C(=O)c1ccc(-c2nc3ccc(F)cc3o2)cc1 [1-[(3S)-4-[4-(6-fluoro-1,3-benzoxazol-2-yl)benzoyl]-3-methylpiperazine-1-carbonyl]cyclopropan-1-ol]"
8,< 500 nM,O=C(c1ccc(-c2ccc3cc(F)ccc3n2)cc1)N1CCN(C(=O)C2(O)CC2)CC1 [1-[(4-{[4-(6-fluoroquinolin-2-yl)phenyl]carbonyl}piperazin-1-yl)carbonyl]cyclopropan-1-ol]
9,< 500 nM,"O=C(c1ccc(N2CCc3cc(F)ccc32)cc1)N1CCN(C(=O)C2(O)CC2)CC1 [1-{4-[4-(5-fluoro-2,3-dihydro-1H-indol-1-yl)benzoyl]piperazine-1-carbonyl}cyclopropan-1-ol]"
10,< 500 nM,"Cc1nc2ccccc2n1-c1ccc(C(=O)N2CCN(C(=O)C3(O)CC3)CC2)cc1 [1-{4-[4-(2-methyl-1H-1,3-benzodiazol-1-yl)benzoyl]piperazine-1-carbonyl}cyclopropan-1-ol]"
11,< 500 nM,O=C(c1ccc(-c2cccc(NS(=O)(=O)C3CCCC3)c2)cc1)N1CCN(C(=O)C2(O)CC2)CC1
12,< 500 nM,"O=C(c1ccc(-c2nc3ccc(F)cc3o2)cc1)N1CCN(C(=O)C2(O)CC2)CC12CC2 [1-{4-[4-(6-fluoro-1,3-benzoxazol-2-yl)benzoyl]-4,7-diazaspiro[2.5]octane-7-carbonyl}cyclopropan-1-ol]"
13,< 500 nM,O=C(c1ccc(-c2cccc(S(=O)(=O)C3CC3)c2)c(Cl)c1)N1CCN(C(=O)C2(O)CC2)CC1
14,< 500 nM,C[C@H]1CN(C(=O)c2ccc(-c3cccc(S(=O)(=O)C4CC4)c3)cc2)CCN1C(=O)C1(O)CC1 [1-[(2S)-4-{4-[3-(cyclopropanesulfonyl)phenyl]benzoyl}-2-methylpiperazine-1-carbonyl]cyclopropan-1-ol]
15,< 500 nM,"Cn1nnc2cc(-c3ccc(C(=O)N4CCN(C(=O)C5(O)CC5)CC4)cc3)c(F)cc21 [1-{4-[4-(6-fluoro-1-methyl-1H-1,2,3-benzotriazol-5-yl)benzoyl]piperazine-1-carbonyl}cyclopropan-1-ol]"
16,< 500 nM,O=C(c1ccc(-c2cnc3ccccc3c2)cc1)N1CCN(C(=O)C2(O)CC2)CC1 [1-[(4-{[4-(quinolin-3-yl)phenyl]carbonyl}piperazin-1-yl)carbonyl]cyclopropan-1-ol]
17,< 500 nM,O=C(c1ccc(-c2n[nH]c3c(F)cccc23)cc1F)N1CCN(C(=O)C2(O)CC2)CC1 [1-{4-[2-fluoro-4-(7-fluoro-1H-indazol-3-yl)benzoyl]piperazine-1-carbonyl}cyclopropan-1-ol]
18,< 500 nM,O=C(c1ccc(-c2cc(F)c3[nH]ccc3c2)cc1)N1CCN(C(=O)C2(O)CC2)CC1

row,IC50,SMILES
1,< 500 nM,COc1ccc(OC(F)(F)F)cc1-c1ccc(C(=O)N2CCN(C(=O)C3(O)CC3)CC2)cc1
2,< 500 nM,O=C(c1ccc(N2CCc3ccc(F)cc3C2)cc1)N1CCN(C(=O)C2(O)CC2)CC1
3,< 500 nM,"CC1Cc2ccccc2CN1c1ccc(C(=O)N2CCN(C(=O)C3(O)CC3)CC2)cc1 (stereo not drawn) [1-{4-[4-(3-methyl-1,2,3,4-tetrahydroisoquinolin-2-yl)benzoyl]piperazine-1-carbonyl}cyclopropan-1-ol]"
4,< 500 nM,C[C@H]1CN(C(=O)c2ccc(-c3nc4ccc(F)cc4o3)cc2)CCN1C(=O)C1(O)CC1
5,< 500 nM,O=C(c1ccc(-c2cc3[nH]nnc3cc2F)cc1)N1CCN(C(=O)C2(O)CC2)CC1
6,< 500 nM,Cn1cc2ccc(-c3ccc(C(=O)N4CCN(C(=O)C5(N)CCC5)CC4)c(F)c3)cc2n1 [1-{4-[2-fluoro-4-(2-methyl-2H-indazol-6-yl)benzoyl]piperazine-1-carbonyl}cyclobutan-1-amine]
7,< 500 nM,O=C(c1ccc(-c2ccc(Cl)cc2)cc1)N1CCN(C(=O)C2(O)CC2)CC1
8,< 500 nM,O=C(c1ccc(-c2ccccc2)cc1)N1CCN(C(=O)C2(O)CC2)CC1 [1-({4-[(4-phenylphenyl)carbonyl]piperazin-1-yl}carbonyl)cyclopropan-1-ol]
9,< 500 nM,NC1(C(=O)N2CCN(C(=O)c3ccc(-c4cc(Cl)ccc4F)cc3)CC2)CC1 [1-{4-[4-(5-chloro-2-fluorophenyl)benzoyl]piperazine-1-carbonyl}cyclopropan-1-amine]
10,< 500 nM,Cn1cc2ccc(-c3ccc(C(=O)N4CCN(C(=O)C5(O)CC5)CC4)c(F)c3)cc2n1
11,< 500 nM,"O=C(c1ccc(-c2nc3cc(Cl)ccc3[nH]2)cc1)N1CCN(C(=O)C2(O)CC2)CC1 [1-[(4-{[4-(5-chloro-1H-1,3-benzodiazol-2-yl)phenyl]carbonyl}piperazin-1-yl)carbonyl]cyclopropan-1-ol]"
12,< 500 nM,"O=C(c1ccc(N2CCc3c(F)cccc32)cc1)N1CCN(C(=O)C2(O)CC2)CC1 [1-{4-[4-(4-fluoro-2,3-dihydro-1H-indol-1-yl)benzoyl]piperazine-1-carbonyl}cyclopropan-1-ol]"
13,< 500 nM,O=C(c1ccc(-c2cccc(Cl)c2)cc1)N1CCN(C(=O)C2(O)CC2)CC1 [1-[(4-{[4-(3-chlorophenyl)phenyl]carbonyl}piperazin-1-yl)carbonyl]cyclopropan-1-ol]
14,< 500 nM,O=C(c1ccc(-c2ccc3ncccc3c2)c(F)c1)N1CCN(C(=O)C2(O)CC2)CC1 [1-[(4-{[3-fluoro-4-(quinolin-6-yl)phenyl]carbonyl}piperazin-1-yl)carbonyl]cyclopropan-1-ol]
15,< 500 nM,O=C(c1ccc(-c2ccc3cc(F)ccc3n2)cc1F)N1CCN(C(=O)C2(O)CC2)CC1 [1-[(4-{[2-fluoro-4-(6-fluoroquinolin-2-yl)phenyl]carbonyl}piperazin-1-yl)carbonyl]cyclopropan-1-ol]
16,< 500 nM,"O=C(c1ccc(N2CCCc3ccccc3C2)cc1)N1CCN(C(=O)C2(O)CC2)CC1 [1-{4-[4-(2,3,4,5-tetrahydro-1H-2-benzazepin-2-yl)benzoyl]piperazine-1-carbonyl}cyclopropan-1-ol]"
17,< 500 nM,"O=C(c1ccc(N2CCc3ccccc32)cc1)N1CCN(C(=O)C2(O)CC2)CC1 [1-{4-[4-(2,3-dihydro-1H-indol-1-yl)benzoyl]piperazine-1-carbonyl}cyclopropan-1-ol]"

# Same assay, conditions: FASN enzymatic assay; Table 2-2
row,IC50,SMILES
1,500 to 5000 nM,"Cc1nc(-c2cnc3ccccc3c2)sc1C(=O)N1CCN(C(=O)C2(O)CC2)CC1 [1-[(4-{[4-methyl-2-(quinolin-3-yl)-1,3-thiazol-5-yl]carbonyl}piperazin-1-yl)carbonyl]cyclopropan-1-ol]"
2,500 to 5000 nM,"Cc1noc2cc(-c3ccc(C(=O)N4CCN(C(=O)C5(O)CC5)CC4)cc3)ccc12 [1-[(4-{[4-(3-methyl-1,2-benzoxazol-6-yl)phenyl]carbonyl}piperazin-1-yl)carbonyl]cyclopropan-1-ol]"
3,500 to 5000 nM,"O=C(c1ccc(-c2cnc3ccc(Cl)cn23)cc1)N1CCN(C(=O)C2(O)CC2)CC1 [1-({4-[(4-{6-chloroimidazo[1,2-a]pyridin-3-yl}phenyl)carbonyl]piperazin-1-yl}carbonyl)cyclopropan-1-ol]"
4,500 to 5000 nM,O=C(c1ccc(-c2ccnc3cc(C(F)(F)F)ccc23)cc1)N1CCN(C(=O)C2(O)CC2)CC1 [1-{[4-({4-[7-(trifluoromethyl)quinolin-4-yl]phenyl}carbonyl)piperazin-1-yl]carbonyl}cyclopropan-1-ol]
5,500 to 5000 nM,O=C(c1ccc(-c2ccc3ncccc3c2)nc1)N1CCN(C(=O)C2(O)CC2)CC1 [1-[(4-{[6-(quinolin-6-yl)pyridin-3-yl]carbonyl}piperazin-1-yl)carbonyl]cyclopropan-1-ol]
6,500 to 5000 nM,"COc1cc(-c2ccc3scnc3c2)ccc1C(=O)N1CCN(C(=O)C2(O)CC2)CC1 [1-[(4-{[4-(1,3-benzothiazol-5-yl)-2-methoxyphenyl]carbonyl}piperazin-1-yl)carbonyl]cyclopropan-1-ol]"

# Same assay, conditions: FASN enzymatic assay; Table 2-3
row,IC50,SMILES
1,≥ 5000 nM,"COc1cc(F)c(F)cc1-c1ccc(C(=O)N2CCN(C(=O)C3(O)CC3)CC2)cc1 [1-[(4-{[4-(4,5-difluoro-2-methoxyphenyl)phenyl]carbonyl}piperazin-1-yl)carbonyl]cyclopropan-1-ol]"
2,≥ 5000 nM,"COc1ccc(-c2ccc(C(=O)N3CCN(C(=O)C4(O)CC4)CC3)cc2)c(OC)n1 [1-[(4-{[4-(2,6-dimethoxypyridin-3-yl)phenyl]carbonyl}piperazin-1-yl)carbonyl]cyclopropan-1-ol]"
3,≥ 5000 nM,O=C(c1ccc(-c2cc(F)ccc2Cl)cc1)N1CCN(C(=O)C2(O)CC2)CC1 [1-[(4-{[4-(2-chloro-5-fluorophenyl)phenyl]carbonyl}piperazin-1-yl)carbonyl]cyclopropan-1-ol]
4,≥ 5000 nM,"O=C(c1ccc(-c2cccc(F)c2F)cc1)N1CCN(C(=O)C2(O)CC2)CC1 [1-[(4-{[4-(2,3-difluorophenyl)phenyl]carbonyl}piperazin-1-yl)carbonyl]cyclopropan-1-ol]"
